Assay results taken from ChEMBL document CHEMBL1201861, “Genomics of Drug Sensitity in Cancer screening data, Wellcome Trust Sanger Institute”.

Test system: KP-N-YN;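 note: growth inhibition of KP-N-YN cells, read out with a cell viability assay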
Assay: cells
Format: functional, cell-based
Conditions: Homo sapiens
Description: SANGER: Inhibition of human KP-N-YN cell growth in a cell viability assay.

Row | Structure (SMILES) | IC50 [µM]
1 | CC1=C(/C=C/C(C)=C/C=C/C(C)=C/C(=O)O)C(C)(C)CCC1 [TRETINOIN] | > 10

Test system: NB17;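 note: growth inhibition of NB17 cells, read out with a cell viability assay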
Assay: cells
Format: functional, cell-based, Homo sapiens
Conditions: Homo sapiens, NB17
Description: SANGER: Inhibition of human NB17 cell growth in a cell viability assay.

Row | Structure (SMILES) | IC50 [µM]
2 | CC1=C(/C=C/C(C)=C/C=C/C(C)=C/C(=O)O)C(C)(C)CCC1 [TRETINOIN] | > 10

Test system: NCI-H2228;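 note: growth inhibition of human NCI-H2228 cells, read out by a cell viability assay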
Assay: cells
Format: functional, cell-based
Conditions: Homo sapiens
Description: SANGER: Inhibition of human NCI-H2228 cell growth in a cell viability assay.

Row | Structure (SMILES) | IC50 [µM]
3 | CC1=C(/C=C/C(C)=C/C=C/C(C)=C/C(=O)O)C(C)(C)CCC1 [TRETINOIN] | > 10

Test system: CAKI-1;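 note: growth inhibition of CAKI-1 cells, measured by a cell viability assay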
Assay: cells
Format: functional, cell-based
Conditions: Homo sapiens
Description: SANGER: Inhibition of human CAKI-1 cell growth in a cell viability assay.

Row | Structure (SMILES) | IC50 [µM]
4 | CC1=C(/C=C/C(C)=C/C=C/C(C)=C/C(=O)O)C(C)(C)CCC1 [TRETINOIN] | > 10

Test system: SK-MES-1;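 note: growth inhibition of human SK-MES-1 cells, read out with a cell viability assay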
Assay: cells
Format: functional, cell-based
Conditions: Homo sapiens
Description: SANGER: Inhibition of human SK-MES-1 cell growth in a cell viability assay.

Row | Structure (SMILES) | IC50 [µM]
5 | CC1=C(/C=C/C(C)=C/C=C/C(C)=C/C(=O)O)C(C)(C)CCC1 [TRETINOIN] | > 10

Test system: TYK-nu;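 note: growth inhibition of human TYK-nu cells, read out by a cell viability assay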
Assay: cells
Format: functional, cell-based
Conditions: Homo sapiens
Description: SANGER: Inhibition of human TYK-nu cell growth in a cell viability assay.

Row | Structure (SMILES) | IC50 [µM]
6 | CC1=C(/C=C/C(C)=C/C=C/C(C)=C/C(=O)O)C(C)(C)CCC1 [TRETINOIN] | > 10

Test system: HCC38;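 note: cell viability assay on the human HCC38 cell line, with IC50 marking the concentration that inhibits cell growth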
Assay: cells
Format: functional, cell-based
Conditions: Homo sapiens
Description: SANGER: Inhibition of human HCC38 cell growth in a cell viability assay.

Row | Structure (SMILES) | IC50 [µM]
7 | CC1=C(/C=C/C(C)=C/C=C/C(C)=C/C(=O)O)C(C)(C)CCC1 [TRETINOIN] | > 10

Test system: T98G;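 note: growth inhibition of T98G cells, read out by a cell viability assay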
Assay: cells
Format: functional, cell-based
Conditions: Homo sapiens
Description: SANGER: Inhibition of human T98G cell growth in a cell viability assay.

Row | Structure (SMILES) | IC50 [µM]
8 | CC1=C(/C=C/C(C)=C/C=C/C(C)=C/C(=O)O)C(C)(C)CCC1 [TRETINOIN] | > 10

Test system: LK-2;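 note: growth inhibition of LK-2 cells, read out with a viability assay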
Assay: cells
Format: functional, cell-based
Conditions: Homo sapiens
Description: SANGER: Inhibition of human LK-2 cell growth in a cell viability assay.

Row | Structure (SMILES) | IC50 [µM]
9 | CC1=C(/C=C/C(C)=C/C=C/C(C)=C/C(=O)O)C(C)(C)CCC1 [TRETINOIN] | > 10

Test system: Daoy;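 note: daoy cell growth inhibition, read out as cell viability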
Assay: cells
Format: functional, cell-based
Conditions: Homo sapiens
Description: SANGER: Inhibition of human Daoy cell growth in a cell viability assay.

Row | Structure (SMILES) | IC50 [µM]
10 | CC1=C(/C=C/C(C)=C/C=C/C(C)=C/C(=O)O)C(C)(C)CCC1 [TRETINOIN] | > 10

Test system: T84;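 note: growth inhibition measured with a cell viability readout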
Assay: cells
Format: functional, cell-based
Conditions: Homo sapiens
Description: SANGER: Inhibition of human T84 cell growth in a cell viability assay.

Row | Structure (SMILES) | IC50 [µM]
11 | CC1=C(/C=C/C(C)=C/C=C/C(C)=C/C(=O)O)C(C)(C)CCC1 [TRETINOIN] | > 10

Test system: BFTC-909
Assay: cells
Format: functional, cell-based
Conditions: Homo sapiens
Description: SANGER: Inhibition of human BFTC-909 cell growth in a cell viability assay.

Row | Structure (SMILES) | IC50 [µM]
12 | CC1=C(/C=C/C(C)=C/C=C/C(C)=C/C(=O)O)C(C)(C)CCC1 [TRETINOIN] | > 10

Test system: ACHN;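 note: cell viability read-out used to gauge how strongly growth of human ACHN cells is suppressed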
Assay: cells
Format: functional, cell-based
Conditions: Homo sapiens
Description: SANGER: Inhibition of human ACHN cell growth in a cell viability assay.

Row | Structure (SMILES) | IC50 [µM]
13 | CC1=C(/C=C/C(C)=C/C=C/C(C)=C/C(=O)O)C(C)(C)CCC1 [TRETINOIN] | > 10

Test system: NCI-H2052;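 note: growth inhibition of NCI-H2052 cells, read out with a cell viability assay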
Assay: cells
Format: functional, cell-based
Conditions: Homo sapiens
Description: SANGER: Inhibition of human NCI-H2052 cell growth in a cell viability assay.

Row | Structure (SMILES) | IC50 [µM]
14 | CC1=C(/C=C/C(C)=C/C=C/C(C)=C/C(=O)O)C(C)(C)CCC1 [TRETINOIN] | > 10

Test system: PFSK-1;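 note: cell viability assay measuring how strongly compounds suppress growth of human PFSK-1 cells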
Assay: cells
Format: functional, cell-based
Conditions: Homo sapiens
Description: SANGER: Inhibition of human PFSK-1 cell growth in a cell viability assay.

Row | Structure (SMILES) | IC50 [µM]
15 | CC1=C(/C=C/C(C)=C/C=C/C(C)=C/C(=O)O)C(C)(C)CCC1 [TRETINOIN] | > 10

Test system: HT-3;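 note: growth inhibition measured with a cell viability readout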
Assay: cells
Format: functional, cell-based
Conditions: Homo sapiens
Description: SANGER: Inhibition of human HT-3 cell growth in a cell viability assay.

Row | Structure (SMILES) | IC50 [µM]
16 | CC1=C(/C=C/C(C)=C/C=C/C(C)=C/C(=O)O)C(C)(C)CCC1 [TRETINOIN] | > 10

Test system: CaR-1;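 note: growth inhibition of human CaR-1 cancer cells, read out with a cell viability assay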
Assay: cells
Format: functional, cell-based
Conditions: Homo sapiens
Description: SANGER: Inhibition of human CaR-1 cell growth in a cell viability assay.

Row | Structure (SMILES) | IC50 [µM]
17 | CC1=C(/C=C/C(C)=C/C=C/C(C)=C/C(=O)O)C(C)(C)CCC1 [TRETINOIN] | > 10

Test system: HCC1806;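 note: growth inhibition of the cancer cell line, determined with a cell viability assay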
Assay: cells
Format: functional, cell-based
Conditions: Homo sapiens
Description: SANGER: Inhibition of human HCC1806 cell growth in a cell viability assay.

Row | Structure (SMILES) | IC50 [µM]
18 | CC1=C(/C=C/C(C)=C/C=C/C(C)=C/C(=O)O)C(C)(C)CCC1 [TRETINOIN] | 0.729

Test system: SCC-4;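 note: growth inhibition of human SCC-4 cells, read out as cell viability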
Assay: cells
Format: functional, cell-based
Conditions: Homo sapiens
Description: SANGER: Inhibition of human SCC-4 cell growth in a cell viability assay.

Row | Structure (SMILES) | IC50 [µM]
19 | CC1=C(/C=C/C(C)=C/C=C/C(C)=C/C(=O)O)C(C)(C)CCC1 [TRETINOIN] | > 10

Test system: A2058;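 note: reduction of A2058 cell growth, read out with a viability assay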
Assay: cells
Format: functional, cell-based
Conditions: Homo sapiens
Description: SANGER: Inhibition of human A2058 cell growth in a cell viability assay.

Row | Structure (SMILES) | IC50 [µM]
20 | CC1=C(/C=C/C(C)=C/C=C/C(C)=C/C(=O)O)C(C)(C)CCC1 [TRETINOIN] | > 10

Test system: HOS;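 note: growth inhibition of human HOS cells, read out with a cell viability assay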
Assay: cells
Format: functional, cell-based
Conditions: Homo sapiens
Description: SANGER: Inhibition of human HOS cell growth in a cell viability assay.

Row | Structure (SMILES) | IC50 [µM]
21 | CC1=C(/C=C/C(C)=C/C=C/C(C)=C/C(=O)O)C(C)(C)CCC1 [TRETINOIN] | > 10

Test system: M059J;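 note: growth inhibition of M059J cells, read out with a cell viability assay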
Assay: cells
Format: functional, cell-based
Conditions: Homo sapiens
Description: SANGER: Inhibition of human M059J cell growth in a cell viability assay.

Row | Structure (SMILES) | IC50 [µM]
22 | CC1=C(/C=C/C(C)=C/C=C/C(C)=C/C(=O)O)C(C)(C)CCC1 [TRETINOIN] | > 10

Test system: KU-19-19
Assay: cells
Format: functional, cell-based
Conditions: Homo sapiens
Description: SANGER: Inhibition of human KU-19-19 cell growth in a cell viability assay.

Row | Structure (SMILES) | IC50 [µM]
23 | CC1=C(/C=C/C(C)=C/C=C/C(C)=C/C(=O)O)C(C)(C)CCC1 [TRETINOIN] | > 10

Test system: MDA-MB-453
Assay: cells
Format: functional, cell-based
Conditions: Homo sapiens
Description: SANGER: Inhibition of human MDA-MB-453 cell growth in a cell viability assay.

Row | Structure (SMILES) | IC50 [µM]
24 | CC1=C(/C=C/C(C)=C/C=C/C(C)=C/C(=O)O)C(C)(C)CCC1 [TRETINOIN] | > 10

Test system: Capan-2;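 note: Capan-2 cell growth inhibition, read out with a viability assay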
Assay: cells
Format: functional, cell-based
Conditions: Homo sapiens
Description: SANGER: Inhibition of human Capan-2 cell growth in a cell viability assay.

Row | Structure (SMILES) | IC50 [µM]
25 | CC1=C(/C=C/C(C)=C/C=C/C(C)=C/C(=O)O)C(C)(C)CCC1 [TRETINOIN] | > 10

Test system: BHY;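 note: cell growth inhibition read out by a viability assay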
Assay: cells
Format: functional, cell-based
Conditions: Homo sapiens
Description: SANGER: Inhibition of human BHY cell growth in a cell viability assay.

Row | Structure (SMILES) | IC50 [µM]
26 | CC1=C(/C=C/C(C)=C/C=C/C(C)=C/C(=O)O)C(C)(C)CCC1 [TRETINOIN] | > 10

Test system: KYSE-70 cell line;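 note: cell viability assay read-out, with IC50 expressing suppression of KYSE-70 cell growth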
Assay: cells
Format: functional, cell-based
Conditions: Homo sapiens
Description: SANGER: Inhibition of human KYSE-70 cell growth in a cell viability assay.

Row | Structure (SMILES) | IC50 [µM]
27 | CC1=C(/C=C/C(C)=C/C=C/C(C)=C/C(=O)O)C(C)(C)CCC1 [TRETINOIN] | > 10

Test system: NCI-H2170;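 note: cell viability assay measuring growth inhibition of human NCI-H2170 cancer cells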
Assay: cells
Format: functional, cell-based
Conditions: Homo sapiens
Description: SANGER: Inhibition of human NCI-H2170 cell growth in a cell viability assay.

Row | Structure (SMILES) | IC50 [µM]
28 | CC1=C(/C=C/C(C)=C/C=C/C(C)=C/C(=O)O)C(C)(C)CCC1 [TRETINOIN] | > 10

Test system: NB7;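 note: growth inhibition of NB7 cells, read out with a cell viability assay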
Assay: cells
Format: functional, cell-based, Homo sapiens
Conditions: Homo sapiens, NB7
Description: SANGER: Inhibition of human NB7 cell growth in a cell viability assay.

Row | Structure (SMILES) | IC50 [µM]
29 | CC1=C(/C=C/C(C)=C/C=C/C(C)=C/C(=O)O)C(C)(C)CCC1 [TRETINOIN] | > 10

Test system: HCC70;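 note: cell viability assay measuring how strongly the compound suppresses proliferation of HCC70 cells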
Assay: cells
Format: functional, cell-based
Conditions: Homo sapiens
Description: SANGER: Inhibition of human HCC70 cell growth in a cell viability assay.

Row | Structure (SMILES) | IC50 [µM]
30 | CC1=C(/C=C/C(C)=C/C=C/C(C)=C/C(=O)O)C(C)(C)CCC1 [TRETINOIN] | > 10

Test system: RT-112
Assay: cells
Format: functional, cell-based
Conditions: Homo sapiens
Description: SANGER: Inhibition of human RT-112 cell growth in a cell viability assay.

Row | Structure (SMILES) | IC50 [µM]
31 | CC1=C(/C=C/C(C)=C/C=C/C(C)=C/C(=O)O)C(C)(C)CCC1 [TRETINOIN] | > 10

Test system: Ca9-22;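 note: growth inhibition of Ca9-22 cells, read out with a cell viability assay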
Assay: cells
Format: functional, cell-based
Conditions: Homo sapiens
Description: SANGER: Inhibition of human Ca9-22 cell growth in a cell viability assay.

Row | Structure (SMILES) | IC50 [µM]
32 | CC1=C(/C=C/C(C)=C/C=C/C(C)=C/C(=O)O)C(C)(C)CCC1 [TRETINOIN] | > 10

Test system: SW1417;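 note: growth inhibition of human SW1417 cells, read out with a cell viability assay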
Assay: cells
Format: functional, cell-based
Conditions: Homo sapiens
Description: SANGER: Inhibition of human SW1417 cell growth in a cell viability assay.

Row | Structure (SMILES) | IC50 [µM]
33 | CC1=C(/C=C/C(C)=C/C=C/C(C)=C/C(=O)O)C(C)(C)CCC1 [TRETINOIN] | > 10

Test system: HEC-1;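 note: growth inhibition of the cell line, read out with a cell viability assay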
Assay: cells
Format: functional, cell-based
Conditions: Homo sapiens
Description: SANGER: Inhibition of human HEC-1 cell growth in a cell viability assay.

Row | Structure (SMILES) | IC50 [µM]
34 | CC1=C(/C=C/C(C)=C/C=C/C(C)=C/C(=O)O)C(C)(C)CCC1 [TRETINOIN] | > 10

Test system: HT-1376
Assay: cells
Format: functional, cell-based
Conditions: Homo sapiens
Description: SANGER: Inhibition of human HT-1376 cell growth in a cell viability assay.

Row | Structure (SMILES) | IC50 [µM]
35 | CC1=C(/C=C/C(C)=C/C=C/C(C)=C/C(=O)O)C(C)(C)CCC1 [TRETINOIN] | > 10

Test system: H4
Assay: cells
Format: functional, cell-based
Conditions: Homo sapiens
Description: SANGER: Inhibition of human H4 cell growth in a cell viability assay.

Row | Structure (SMILES) | IC50 [µM]
36 | CC1=C(/C=C/C(C)=C/C=C/C(C)=C/C(=O)O)C(C)(C)CCC1 [TRETINOIN] | > 10

Test system: HOP-92;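 note: cell viability readout, with IC50 reflecting inhibition of HOP-92 cell growth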
Assay: cells
Format: functional, cell-based
Conditions: Homo sapiens
Description: SANGER: Inhibition of human HOP-92 cell growth in a cell viability assay.

Row | Structure (SMILES) | IC50 [µM]
37 | CC1=C(/C=C/C(C)=C/C=C/C(C)=C/C(=O)O)C(C)(C)CCC1 [TRETINOIN] | > 10

Test system: HuO-3N1;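 note: cell viability readout used to measure how strongly compounds suppress proliferation of human HuO-3N1 cells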
Assay: cells
Format: functional, cell-based
Conditions: Homo sapiens
Description: SANGER: Inhibition of human HuO-3N1 cell growth in a cell viability assay.

Row | Structure (SMILES) | IC50 [µM]
38 | CC1=C(/C=C/C(C)=C/C=C/C(C)=C/C(=O)O)C(C)(C)CCC1 [TRETINOIN] | 0.832

Test system: PC-3;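 note: cell viability assay measuring growth inhibition of PC-3 cells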
Assay: cells
Format: functional, cell-based
Conditions: Homo sapiens
Description: SANGER: Inhibition of human PC-3 cell growth in a cell viability assay.

Row | Structure (SMILES) | IC50 [µM]
39 | CC1=C(/C=C/C(C)=C/C=C/C(C)=C/C(=O)O)C(C)(C)CCC1 [TRETINOIN] | > 10
